What is called melting point is the temperature, or range, at which the solid turns liquid. As usually defined, the IC50 is the midpoint of a concentration-inhibition curve.

Data set [1] deals with T1, human NPFFR1 (hNPFFR1) receptor (Homo sapiens, UniProt Q9GZQ6).
T1 construct: expressed in transfected cells; host or cells: HEK-293 T cells, transient co-transfection
Nature of the data set: Human NPFFR1 evaluation using BRET biosensors in HEK-293 T cells. The class given is cell-based. Particulars: hNPFFR1 in HEK-293 T cells, stimulated by EC80 RFRP-3, read-out: IC50 of antagonist activity. Here is the method: Compounds of the present invention were tested successively for their agonist and antagonist activities on human NPFFR1 (hNPFFR1) receptor transiently over-expressed in HEK-293 T cells. Compounds exert agonist activity if, by themselves in absence of neuropeptide RFRP-3 (also named NPVF) they activate hNPFFR1; and they exert antagonist activity if they decrease the action of RFRP-3 on the receptor. The assay used to measure compound activity is based on BRET (Bioluminescence Resonance Energy Transfer) biosensors and is designed to monitor the plasma membrane translocation of protein that interacts with specific Ga subunit. The specific effector (luciferase tagged: BRET donor) recruited at the membrane will be in close proximity to a plasma membrane anchor (GFP tagged: BRET acceptor) to induce a BRET signal (Ramdan et al, 2006, Chapter 5, Current Protocols in Neuroscience).
HEK-293 T cells are maintained in Dulbecco's Modified Eagle's Medium supplemented with 10% Foetal Calf Serum, 1% Penicillin/Streptomycin at 37° C./5% CO2. Cells are co-transfected using polyethylenimine (25 kDa linear) with four DNA plasmids encoding; hNPFFR1, GαoB, a Gi family specific intracellular effector fused to luciferase (BRET donor), a plasma membrane effector fused to GFP (BRET acceptor). After transfection, cells are cultured for 48 h at 37° C./5% CO2.
Receptor activity is detected by changes in BRET signal.
On the day of the assay, cells are detached using trypsin 0.05%, resuspended in assay buffer (1.8 mM CaCl2, 1 mM MgCl2, 2.7 mM KCl, 137 mM NaCl, 0.4 mM NaH2PO4, 5.5 mM D-Glucose, 11.9 mM NaHCO3, 25 mM Hepes) and seeded in 384 well plate at a density of 20,000 cells per well. Then, plates are equilibrated 3.5 hours at 37° C. before adding compounds.
Compounds and luciferase substrate are added to the cells using an automated device (Freedom Evo®, Tecan) and BRET readings are collected on EnVision (PerkinElmer) with specific filters (410 nm BW 80 nm, 515 nm BW 30 nm).
Agonist and antagonist activities of compounds are consecutively evaluated on the same cell plate. Agonist activity is first measured after 10 minutes incubation with compound alone on the cells. Then, cells are stimulated by an EC80 RFRP-3 concentration and luminescence is recorded for additional 10 minutes. EC80 RFRP-3 concentration is the concentration giving 80% of the maximal RFRP-3 response. Agonist or antagonist activities are evaluated in comparison to basal signals evoked by assay buffer or EC80 RFRP-3 alone, respectively.
For IC50 determination, a dose-response test is performed using 20 concentrations (ranging over 6 logs) of each compound. Dose-response curves are fitted using the sigmoidal dose-response (variable slope) analysis in GraphPad Prism software (GraphPad Software) and IC50 of antagonist activity is calculated. Dose-response experiments are performed in duplicate, in two independent experiments.
Background: In BRET a luciferase serves as donor, and the signal depends on an acceptor being close.

T1 sequence (Q9GZQ6 whole entry): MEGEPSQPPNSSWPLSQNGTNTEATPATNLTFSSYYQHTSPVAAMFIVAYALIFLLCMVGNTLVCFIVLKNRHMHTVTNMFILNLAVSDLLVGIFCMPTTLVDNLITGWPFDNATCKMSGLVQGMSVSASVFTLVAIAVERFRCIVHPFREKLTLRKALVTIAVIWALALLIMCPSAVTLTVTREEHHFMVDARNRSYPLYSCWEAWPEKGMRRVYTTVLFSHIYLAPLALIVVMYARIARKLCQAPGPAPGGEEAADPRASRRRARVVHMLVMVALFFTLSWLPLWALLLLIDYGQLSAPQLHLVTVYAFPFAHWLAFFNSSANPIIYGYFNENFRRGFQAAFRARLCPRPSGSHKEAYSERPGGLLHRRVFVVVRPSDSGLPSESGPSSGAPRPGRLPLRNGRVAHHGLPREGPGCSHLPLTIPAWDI

Turning to `Cl.Nc1ccc(-c2ccc(O)c3ccccc23)c(N)n1` [Compound 74, 4-(2,6-diamino-3-pyridyl)naphthalen-1-ol], the melting point lay in the range of 160 to 166 °C. Also, the IC50 in data set [1] fell in the range of 500 to 1000 nM.

Turning to `Cl.Nc1ccc(-c2ccccc2OCC2CC2)c(N)n1` [Compound 65, 3-[2-(cyclopropylmethoxy)phenyl]pyridine-2,6-diamine], the melting point was in the range of 63 to 68 °C. The IC50 in data set [1] is less than 100 nM.

The molecule `CS(=O)(=O)c1ccccc1-c1ccc(N)nc1N.Cl` [Compound 63, 3-(2-methylsulfonylphenyl)pyridine-2,6-diamine] yielded a melting point of 55 to 65 °C. In addition, the IC50 in data set [1] is more than 1000 nM.

Consider `Cc1cccc(-c2ccc(N)nc2N)c1Cl` [Compound 58, 3-(2-chloro-3-methyl-phenyl)-pyridine-2,6-diamine], for which the melting point lay in the range of 109 to 114 °C. Moreover, the concentration for half-maximal inhibition (IC50) in data set [1] was 100 to 500 nM.

`CC(C)Oc1ccc(F)cc1-c1ccc(N)nc1N` [Compound 50, 3-(5-Fluoro-2-isopropoxy-phenyl)-pyridine-2,6-diamine] had a melting point of 93 to 97 °C. Besides, the IC50 in data set [1] was 500 to 1000 nM.

Regarding `Cc1ccc(-c2ccc(N)nc2N)c2ccccc12.Cl` [Compound 71, 3-(4-methyl-1-naphthyl)pyridine-2,6-diamine], the melting point fell in the range of 127 to 132 °C. Also, the IC50 in data set [1] was 100 to 500 nM.

For `COc1ccc2ccccc2c1-c1ccc(N)nc1N` [Compound 69, 3-(2-methoxy-1-naphthyl)pyridine-2,6-diamine], the melting point lay within 63 to 67 °C. In data set [1], the IC50 was in the range of 100 to 500 nM.

`Cc1ncccc1-c1ccc(N)nc1N` [Compound 84, 3-(2-methyl-3-pyridyl)pyridine-2,6-diamine] yielded a melting point of 192 to 198 °C. Also, the IC50 in data set [1] is more than 1000 nM.

The molecule `CCc1nc(N)ccc1-c1cccc2ccccc12.Cl` [Compound 67, 6-ethyl-5-(1-naphthyl)pyridin-2-amine] came in with a melting point of 90 to 120 °C. Besides, in data set [1], the half-inhibitory concentration (IC50) lay within 100 to 500 nM.

The molecule `CC(C)Oc1ccc(C(F)(F)F)cc1-c1ccc(N)nc1N` [Compound 52, 3-(2-Isopropoxy-5-trifluoromethyl-phenyl)-pyridine-2,6-diamine] showed a melting point of 100 to 103 °C. In data set [1], the IC50 was more than 1000 nM.

`Cc1ccc(-c2ccc(N)nc2N)c(OC(C)C)c1` [Compound 46, 3-(2-Isopropoxy-4-methyl-phenyl)-pyridine-2,6-diamine] showed a melting point of 75 to 80 °C. In data set [1], the IC50 was more than 1000 nM.

For the molecule `CCc1nc(N)ccc1-c1ccccc1OC1CCCC1.Cl` [Compound 76, 5-[2-(cyclopentoxy)phenyl]-6-ethyl-pyridin-2-amine], the melting point was 80 to 93 °C. Further, the concentration for half-maximal inhibition (IC50) in data set [1] is less than 100 nM.

The molecule `CC(C)Oc1ccc2ccccc2c1-c1ccc(N)nc1N` [Compound 70, 3-(2-isopropoxy-1-naphthyl)pyridine-2,6-diamine] displayed a melting point of 40 to 43 °C. Moreover, the IC50 in data set [1] fell in the range of 500 to 1000 nM.

In turn, `Cc1cc(N)ncc1-c1cccc(Cl)c1Cl` [Compound 22, 5-(2,3-Dichloro-phenyl)-4-methyl-pyridin-2-ylamine] displayed a melting point of 94 to 97 °C. Besides, the IC50 in data set [1] was more than 1000 nM.

For `CCc1nc(N)ccc1-c1ccccc1C1CC1.Cl` [Compound 30, 5-(2-cyclopropylphenyl)-6-ethyl-pyridin-2-amine], the melting point lay in the range of 180 to 190 °C. The IC50 in data set [1] lay within 100 to 500 nM.

The molecule `COc1ccc(-c2ccc(N)nc2N)c(C)c1` [Compound 40, 3-(4-Methoxy-2-methyl-phenyl)-pyridine-2,6-diamine] returned a melting point of 150 to 158 °C. For the same molecule, in data set [1], the IC50 is more than 1000 nM.

With `Nc1ccc(-c2cccc3ccccc23)c(N)n1` [Compound 68, 3-(1-naphthyl)pyridine-2,6-diamine], the melting point lay within 152 to 158 °C. The IC50 in data set [1] is less than 100 nM.

Molecule `Cc1ccc(OC(C)C)c(-c2ccc(N)nc2N)c1` [Compound 49, 3-(2-Isopropoxy-5-methyl-phenyl)-pyridine-2,6-diamine] displayed a melting point of 78 to 81 °C. In data set [1], the 50% inhibitory concentration (IC50) was 500 to 1000 nM.

Consider `Cl.Nc1ccc(-c2ccc(Cl)c3ccccc23)c(N)n1` [Compound 73, 3-(4-chloro-1-naphthyl)pyridine-2,6-diamine], for which the melting point lay within 135 to 140 °C. Further, in data set [1], the IC50 was less than 100 nM.

`Nc1ccc(-c2ccc(Cl)cc2F)c(N)n1` [Compound 41, 3-(4-Chloro-2-fluoro-phenyl)-pyridine-2,6-diamine]: the melting point fell in the range of 134 to 139 °C. The IC50 in data set [1] was more than 1000 nM.

Molecule `CCc1nc(N)ccc1-c1ccccc1OC1CC1.Cl` [Compound 31, 5-[2-(cyclopropoxy)phenyl]-6-ethyl-pyridin-2-amine] showed a melting point of 60 to 80 °C. Further, the IC50 in data set [1] was less than 100 nM.

In turn, `CC(C)Oc1cc(F)ccc1-c1ccc(N)nc1N` [Compound 53, 3-(4-Fluoro-2-isopropoxy-phenyl)-pyridine-2,6-diamine] returned a melting point of 59 to 63 °C. Moreover, in data set [1], the IC50 was in the range of 100 to 500 nM.

Molecule `Cc1cc(C(F)(F)F)ccc1-c1ccc(N)nc1N` [Compound 57, 3-(2-Methyl-4-trifluoromethyl-phenyl)-pyridine-2,6-diamine] registered a melting point of 60 to 65 °C. In data set [1], the IC50 is more than 1000 nM.

`COc1ccccc1-c1ccc(N)nc1C` [Compound 26, 5-(2-Methoxy-phenyl)-6-methyl-pyridin-2-ylamine] showed a melting point of 132 to 140 °C. The IC50 in data set [1] was more than 1000 nM.

In turn, `Cc1ccc(Cl)cc1-c1ccc(N)nc1N` [Compound 56, 3-(5-Chloro-2-methyl-phenyl)-pyridine-2,6-diamine] registered a melting point of 95 to 97 °C. The IC50 in data set [1] was in the range of 100 to 500 nM.

Regarding `CSc1ccccc1-c1ccc(N)nc1N.Cl` [Compound 59, 3-(2-Methylsulfanyl-phenyl)-pyridine-2,6-diamine], the melting point was in the range of 73 to 78 °C. The IC50 in data set [1] was 100 to 500 nM.

Molecule `Cl.Nc1ccc(-c2ccc(F)c3ccccc23)c(N)n1` [Compound 72, 3-(4-fluoro-1-naphthyl)pyridine-2,6-diamine] gave a melting point of 119 to 126 °C. Besides, in data set [1], the half-maximal inhibitory concentration (IC50) is less than 100 nM.

Molecule `Cc1cccc(C)c1-c1ccc(N)nc1N` [Compound 51, 3-(2,6-Dimethyl-phenyl)-pyridine-2,6-diamine] yielded a melting point of 104 to 108 °C. The concentration for half-maximal inhibition (IC50) in data set [1] lay within 100 to 500 nM.

As for `Cl.N#Cc1ccccc1-c1ccc(N)nc1N` [Compound 96, 2-(2,6-diamino-3-pyridyl)benzonitrile], the melting point was more than 250 °C. The IC50 in data set [1] fell in the range of 100 to 500 nM.

Molecule `Nc1ccc(-c2ccc(F)nc2)c(N)n1` [Compound 86, 3-(6-fluoro-3-pyridyl)pyridine-2,6-diamine] displayed a melting point of 170 to 178 °C. Besides, the IC50 in data set [1] is more than 1000 nM.

`COc1ccccc1-c1cnc(N)cc1OCCN.Cl`: the melting point is 218 to 224 °C.

As for `Cc1n[nH]c(C)c1-c1ccc(N)nc1N` [Compound 90, 3-(3,5-dimethyl-1H-pyrazol-4-yl)pyridine-2,6-diamine], the melting point was more than 250 °C.

The molecule `Cl.Nc1ccc(-c2ccccc2OCc2ccccc2)c(N)n1` [Compound 64, 3-(2-benzyloxyphenyl)pyridine-2,6-diamine] returned a melting point of 50 to 60 °C. For the same molecule, the IC50 in data set [1] was less than 100 nM.

For the molecule `Nc1ccc(-c2ccc(F)cc2Cl)c(N)n1` [Compound 45, 3-(2-Chloro-4-fluoro-phenyl)-pyridine-2,6-diamine], the melting point was in the range of 150 to 155 °C. Further, the concentration for half-maximal inhibition (IC50) in data set [1] lay in the range of 500 to 1000 nM.

In turn, `Cc1nc(F)ccc1-c1ccc(N)nc1N` [Compound 85, 3-(6-fluoro-2-methyl-3-pyridyl)pyridine-2,6-diamine] returned a melting point of 186 to 192 °C. Besides, the IC50 in data set [1] was more than 1000 nM.

`Cc1cc(N)nc(C)c1-c1cccc(Cl)c1Cl` [Compound 28, 5-(2,3-Dichloro-phenyl)-4,6-dimethyl-pyridin-2-ylamine] gave a melting point of 140 to 145 °C.

The values are drawn from patent US20210221784A1, “COMPOUNDS AND COMPOSITIONS FOR THE TREATMENT OF PAIN” (Université de Strasbourg, priority 2018, published 2021).
